Active and inactive are the calls of the source.
Experiments:
[1] = biological target: T1, Methionyl-tRNA synthetase, putative (Trypanosoma brucei brucei, UniProt Q38C91); format: functional, Trypanosoma brucei brucei strain 927/4 GUTat10.1
T1 sequence (Q38C91 whole entry): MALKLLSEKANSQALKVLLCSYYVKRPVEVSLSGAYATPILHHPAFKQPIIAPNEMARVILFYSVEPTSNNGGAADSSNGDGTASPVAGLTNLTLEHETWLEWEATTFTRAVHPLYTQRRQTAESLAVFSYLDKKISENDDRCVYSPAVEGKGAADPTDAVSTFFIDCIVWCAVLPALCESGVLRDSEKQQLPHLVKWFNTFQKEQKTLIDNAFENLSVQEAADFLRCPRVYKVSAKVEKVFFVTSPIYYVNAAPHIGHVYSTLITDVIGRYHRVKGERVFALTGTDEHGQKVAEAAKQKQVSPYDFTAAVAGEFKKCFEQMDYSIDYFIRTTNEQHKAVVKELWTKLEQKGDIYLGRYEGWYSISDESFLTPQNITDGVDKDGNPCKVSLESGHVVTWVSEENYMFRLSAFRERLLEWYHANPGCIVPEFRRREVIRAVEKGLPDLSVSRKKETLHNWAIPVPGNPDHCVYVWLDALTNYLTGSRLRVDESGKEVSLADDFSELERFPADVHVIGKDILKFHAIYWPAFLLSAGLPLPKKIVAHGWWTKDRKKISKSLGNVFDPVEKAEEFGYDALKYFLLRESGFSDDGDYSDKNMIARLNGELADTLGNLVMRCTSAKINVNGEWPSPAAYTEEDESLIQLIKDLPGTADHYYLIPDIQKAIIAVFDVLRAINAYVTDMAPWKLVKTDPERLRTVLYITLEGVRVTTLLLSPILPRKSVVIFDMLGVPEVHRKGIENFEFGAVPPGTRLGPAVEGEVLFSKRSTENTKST

[2] = Counterscreen for inhibitors of Trypanosoma brucei methionyl tRNA synthetase (MetRS): Luminescence-based cell-based high throughput dose response assay to identify compounds that are cytotoxic to Jurkat human T lymphocyte cells.; format: functional
[3] = biological target: T1, Methionyl-tRNA synthetase, putative; format: functional, Trypanosoma brucei brucei strain 927/4 GUTat10.1; remark: listed apart in the source
[4] = Late stage counterscreen for inhibitors of Trypanosoma brucei methionyl tRNA synthetase (MetRS): Luminescence-based cell-based high throughput dose response assay to identify compounds that are cytotoxic to Jurkat human T lymphocyte cells.; format: functional
Jurkat = test: antigen receptor-induced NF-kB inhibitors, dose response, Jurkat, luciferase reporter, luminescence, B- and T-cell (AID 489004); format: functional, cell-based; conditions: Homo sapiens;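 also: NF-kB luciferase reporter Jurkat cells stimulated with PMA plus ionomycin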
[5] = cytotoxicity in HEK-293T NF-kB-Luc cells, dose response, cytotoxicity control for B/T-cell NF-kB inhibitor project, cell-based, uHTS hits (AID 489019); format: functional;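 also: IC50 reflects cytotoxicity as loss of cell viability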
Cytochrome P450 2C19 = Cytochrome P450 2C19 (Homo sapiens, UniProt P33261); test: Cytochrome panel assay with activity outcomes. Panel member name: p450-cyp2c19 Compounds with AC50 equal or less than 10 uM are considered active; format: functional; conditions: read-out: AC50
INS1 = test: beta cell apoptosis inhibitors, cytokine rescue, dose response, luminescence, retest (AID 449756); format: functional, cell-based; conditions: Rattus norvegicus;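 also: cell death triggered by IL-1 beta plus TNF-alpha plus IFN-gamma mixture; protective hits raise ATP signal compared with cytokine alone wells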
[6] = inhibitors of HIV Env-driven cell fusion, dose response, cherry-pick (AID 652057); format: functional, cell-based
Galanin receptor type 3 = Galanin receptor type 3 (Homo sapiens, UniProt O60755); test: Fluorescence-based cell-based primary high throughput dose response assay to identify antagonists of the Galanin Receptor 3 (GalR3).; format: functional
cells [7] = format: functional, cell-based; conditions: HEK-CNG
[8] = ZM109 Env clade C HIV-1 fusion inhibitors, dose response, HeLa effector, CEM target cells, luciferase, cherry-pick (AID 652058); format: functional, cell-based
[9] = inhibitors of clade B AD8 Env fusion, dose response, cell-based, cherry-pick (AID 652062); format: functional;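 also: luciferase signal from cell-cell fusion driven by HIV-1 clade B AD8 Env; potency is for inhibitors of fusion seen as a drop in luminescence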
[10] = biological target: COUP transcription factor 2 (Homo sapiens, UniProt P24468); test: Luminescence-based cell-based high throughput dose response assay to identify inhibitors of COUP-TFII (NR2F2).; format: functional;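 also: HEK293 cells transiently cotransfected with COUP-TFII expression vector and reporter; luciferase reporter luminescence driven by COUP-TFII from the pX2-168 reporter plasmid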
Cytochrome P450 3A4 = Cytochrome P450 3A4 (Homo sapiens, UniProt P08684);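 also: CYP3A4 tested as one member of a cytochrome P450 panel screen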
[11] = biological target: NAD-dependent protein deacylase sirtuin-5, mitochondrial (Homo sapiens, UniProt Q9NXA8); test: SIRT5 desuccinylase inhibitors, dose response, biochemical, fluorescence imaging, cherry-pick, set 5 (AID 720591);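 also: desuccinylation of succinyl peptide AMC substrate read as fluorescence after trypsin release; potency of inhibitors that lower fluorescence and may act on trypsin instead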
Bcl-2-like protein 10 = Bcl-2-like protein 10 (Homo sapiens, UniProt Q9HD36); test: displacers of TR3 peptide from Bcl-B, primary screen, selectivity assay for Bfl-1 inhibitor project, biochemical, fluorescence polarization, FITC-TR3 peptide (AID 748);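 also: fluorescence polarization from a fluorescein-labelled TR3 peptide binding purified Bcl-B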
[12] = Artemis endonuclease inhibitor potency, dose response, biochemical, fluorescence intensity (AID 720701); format: functional;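 also: Artemis endonuclease enzyme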
HeLa = test: HeLa cell cytotoxicity, dose response, cytotoxicity control for MITF activator project, CellTiter-Glo luminescence, cherry-pick samples (AID 540259); format: functional, cell-based; conditions: Homo sapiens
[13] = HepG2 cell cytotoxicity, dose response, cytotoxicity control, ATP luminescence, cherry-pick, set 6 (AID 1053125); format: functional, cell-based
cells [14] = conditions: HEK293
[15] = P. falciparum late gametocyte killing, dose response, luminescence (AID 1117278); format: functional, cell-based;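 also: gametocytes exposed to compound for 24 hours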
[16] = Jurkat T cell cytotoxicity, dose response, cytotoxicity control for P. falciparum gametocyte viability project, luminescence (AID 1117277); format: functional, cell-based;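 also: potency reflects loss of cellular ATP meaning fewer viable cells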
Kallikrein-7 = Kallikrein-7 (Homo sapiens, UniProt P49862); test: Fluorescence Intensity-based biochemical primary high throughput dose response assay to identify activators of kallikrein-7 (K7) zymogen.
Paired box protein Pax-8 = Paired box protein Pax-8 (Homo sapiens, UniProt Q06710); test: inhibitors of PAX8-driven TPO luciferase reporter, dose response, RMG-I cells, cherry-pick (AID 687027); format: functional, cell-based;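 also: luciferase reporter driven by Pax8 target thyroperoxidase promoter measured by SteadyGlo luminescence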
[17] = IOSE-T80 ovarian epithelial cell cytotoxicity, dose response, cytotoxicity control for PAX8 inhibitor project, plate reader, dry powder samples (AID 743045); format: functional, cell-based
[18] = A2780 ovarian cancer cell cytotoxicity, dose response, cytotoxicity control, plate reader, dry powder samples (AID 743046); format: functional, cell-based
[19] = NIH:OVCAR-3 ovarian cancer cell cytotoxicity, dose response, PAX8 inhibitor project, plate reader, dry powder samples (AID 743044); format: functional, cell-based
[20] = IGROV1 ovarian cancer cell cytotoxicity, dose response, PAX8 inhibitor project, plate reader, dry powder samples (AID 743043); format: functional, cell-based; conditions: IGROV-1
[21] = cytotoxicity in OVCAR8 ovarian cancer cells, dose response, PAX8 project, cell-based, plate reader, dry powder samples (AID 743197); format: functional; conditions: OVCAR-8

Kallikrein-7, sequence (P49862 whole entry): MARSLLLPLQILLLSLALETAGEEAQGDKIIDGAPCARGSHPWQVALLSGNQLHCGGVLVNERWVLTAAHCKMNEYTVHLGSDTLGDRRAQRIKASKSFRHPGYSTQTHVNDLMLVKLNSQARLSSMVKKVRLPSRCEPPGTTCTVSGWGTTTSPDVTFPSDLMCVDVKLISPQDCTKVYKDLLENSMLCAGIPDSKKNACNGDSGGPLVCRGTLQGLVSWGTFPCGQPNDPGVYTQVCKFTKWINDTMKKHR
Cytochrome P450 3A4, sequence (P08684 whole entry): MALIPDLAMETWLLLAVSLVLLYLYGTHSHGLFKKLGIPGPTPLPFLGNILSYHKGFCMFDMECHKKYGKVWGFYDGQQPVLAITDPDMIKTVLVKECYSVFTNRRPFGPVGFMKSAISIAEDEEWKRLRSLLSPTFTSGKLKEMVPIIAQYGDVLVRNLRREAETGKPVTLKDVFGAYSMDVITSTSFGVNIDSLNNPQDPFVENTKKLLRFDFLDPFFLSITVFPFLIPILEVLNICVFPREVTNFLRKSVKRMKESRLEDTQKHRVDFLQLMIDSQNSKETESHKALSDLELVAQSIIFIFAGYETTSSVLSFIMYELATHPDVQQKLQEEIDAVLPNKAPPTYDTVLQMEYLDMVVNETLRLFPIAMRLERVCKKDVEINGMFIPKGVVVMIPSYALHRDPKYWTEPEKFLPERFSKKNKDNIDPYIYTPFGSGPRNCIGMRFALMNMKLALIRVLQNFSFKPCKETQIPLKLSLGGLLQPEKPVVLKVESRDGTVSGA
Paired box protein Pax-8, sequence (Q06710 whole entry): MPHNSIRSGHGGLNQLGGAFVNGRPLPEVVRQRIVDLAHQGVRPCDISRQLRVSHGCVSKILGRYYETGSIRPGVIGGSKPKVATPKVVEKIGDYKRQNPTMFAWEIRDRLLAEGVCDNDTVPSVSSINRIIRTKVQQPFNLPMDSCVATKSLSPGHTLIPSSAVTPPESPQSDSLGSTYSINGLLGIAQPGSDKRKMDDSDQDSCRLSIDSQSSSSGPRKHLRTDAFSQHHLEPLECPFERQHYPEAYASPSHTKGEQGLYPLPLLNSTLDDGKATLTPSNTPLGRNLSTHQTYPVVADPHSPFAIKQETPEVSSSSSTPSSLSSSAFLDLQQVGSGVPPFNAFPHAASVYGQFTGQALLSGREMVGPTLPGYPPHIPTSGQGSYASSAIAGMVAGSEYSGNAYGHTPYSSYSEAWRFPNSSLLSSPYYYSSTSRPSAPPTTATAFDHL
Galanin receptor type 3, sequence (O60755 whole entry): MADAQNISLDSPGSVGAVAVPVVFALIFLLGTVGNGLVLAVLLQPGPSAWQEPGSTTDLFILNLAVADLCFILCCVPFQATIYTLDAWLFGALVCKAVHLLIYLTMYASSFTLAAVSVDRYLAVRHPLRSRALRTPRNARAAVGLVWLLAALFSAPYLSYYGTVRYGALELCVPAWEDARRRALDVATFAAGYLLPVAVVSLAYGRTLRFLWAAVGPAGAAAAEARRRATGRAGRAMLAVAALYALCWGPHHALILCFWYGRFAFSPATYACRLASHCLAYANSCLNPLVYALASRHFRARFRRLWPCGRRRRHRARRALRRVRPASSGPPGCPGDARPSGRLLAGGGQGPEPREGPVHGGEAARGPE
Bcl-2-like protein 10, sequence (Q9HD36 whole entry): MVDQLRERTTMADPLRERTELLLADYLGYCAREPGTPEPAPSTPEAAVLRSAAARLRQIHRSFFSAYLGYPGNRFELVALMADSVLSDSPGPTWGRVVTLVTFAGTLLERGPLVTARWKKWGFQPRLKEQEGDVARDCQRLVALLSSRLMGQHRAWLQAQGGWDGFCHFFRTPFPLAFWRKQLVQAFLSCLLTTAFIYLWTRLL
NAD-dependent protein deacylase sirtuin-5, mitochondrial, sequence (Q9NXA8 whole entry): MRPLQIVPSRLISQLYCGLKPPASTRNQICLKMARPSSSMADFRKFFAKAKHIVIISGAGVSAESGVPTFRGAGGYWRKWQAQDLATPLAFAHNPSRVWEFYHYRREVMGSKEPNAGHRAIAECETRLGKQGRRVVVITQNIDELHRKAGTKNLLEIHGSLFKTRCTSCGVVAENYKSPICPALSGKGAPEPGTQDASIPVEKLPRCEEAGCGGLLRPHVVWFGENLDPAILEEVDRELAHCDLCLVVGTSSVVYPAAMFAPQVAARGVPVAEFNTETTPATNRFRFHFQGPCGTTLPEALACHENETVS
COUP transcription factor 2, sequence (P24468 whole entry): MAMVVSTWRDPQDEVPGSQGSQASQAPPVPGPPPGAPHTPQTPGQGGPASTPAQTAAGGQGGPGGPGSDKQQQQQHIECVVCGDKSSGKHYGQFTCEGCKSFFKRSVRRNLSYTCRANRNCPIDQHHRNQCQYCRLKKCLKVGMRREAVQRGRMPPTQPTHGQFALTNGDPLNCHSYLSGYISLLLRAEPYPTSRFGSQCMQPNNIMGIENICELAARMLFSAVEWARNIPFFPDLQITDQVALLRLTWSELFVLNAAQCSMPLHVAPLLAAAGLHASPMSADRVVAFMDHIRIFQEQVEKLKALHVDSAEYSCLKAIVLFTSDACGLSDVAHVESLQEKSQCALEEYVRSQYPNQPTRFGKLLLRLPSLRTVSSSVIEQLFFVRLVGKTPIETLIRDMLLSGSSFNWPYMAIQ
Cytochrome P450 2C19, sequence (P33261 whole entry): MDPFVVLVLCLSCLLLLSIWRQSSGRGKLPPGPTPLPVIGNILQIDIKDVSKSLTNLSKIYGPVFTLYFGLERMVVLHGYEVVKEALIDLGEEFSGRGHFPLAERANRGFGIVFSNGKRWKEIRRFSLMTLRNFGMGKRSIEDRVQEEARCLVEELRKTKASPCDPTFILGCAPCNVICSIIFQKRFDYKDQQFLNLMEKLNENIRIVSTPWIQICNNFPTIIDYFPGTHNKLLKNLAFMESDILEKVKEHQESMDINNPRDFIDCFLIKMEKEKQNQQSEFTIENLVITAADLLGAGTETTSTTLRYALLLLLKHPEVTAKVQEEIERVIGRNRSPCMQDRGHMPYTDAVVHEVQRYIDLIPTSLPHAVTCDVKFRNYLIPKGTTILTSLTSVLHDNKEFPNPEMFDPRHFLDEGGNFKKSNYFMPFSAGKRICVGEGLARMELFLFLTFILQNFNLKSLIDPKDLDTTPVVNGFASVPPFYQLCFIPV

Question: Which results are given for `CC(=O)c1ccc(N2CCN(C(=O)CCCn3c(=O)[nH]c4ccc(Br)cc4c3=O)CC2)cc1`?
Answer: IC50 [1]: 1.48 µM (active); IC50 [2]: 53.2 µM (inactive); IC50 [3]: 579 nM (active); IC50 [4]: 25.9 µM (inactive)

Question: What does the source list for `Cc1cc(N2CCN(c3nc4ccccc4s3)CC2)n2ncnc2n1`?
Answer: IC50 (Jurkat): > 80 µM (inactive); IC50 [5]: > 80 µM (inactive); AC50 (Cytochrome P450 2C19): 14.1 µM (inconclusive); AC50 (INS1): 5.06 µM (active); AC50 [6]: 4.63 µM (active); IC50 (Galanin receptor type 3): 1.43 µM (active); EC50 (cells [7]): > 29.9 µM (inactive); AC50 [8]: 6.41 µM (active); AC50 [9]: 5.3 µM (active); IC50 [10]: 6.41 µM (active); AC50 (Cytochrome P450 3A4): 39.8 µM (inconclusive)

Question: Which AC50 [11] does the source give for `COc1ccc(-c2csc3ncnc(O)c23)cc1` here?
Answer: The AC50 was 15.6 µM (active).

Question: Which IC50 (Bcl-2-like protein 10) does the source give for `Cc1cc(-c2csc(N)n2)c(C)n1C` here?
Answer: Its IC50 is 26 µM (active).

Question: What about the IC50 [12] of the same compound?
Answer: The IC50 was > 20 µM (inactive).

Question: With `Nc1ccc(C#Cc2ccc3c(=O)c4ccccc4oc3c2)cc1` as the compound, how does the AC50 (HeLa) read?
Answer: Its AC50 is 59.6 µM (active).

Question: And the AC50 [13]?
Answer: Its AC50 is > 52 µM (inactive).

Question: And the AC50 (cells [14])?
Answer: Its AC50 is > 52 µM (inactive).

Question: With `O=C1N[C@@H](c2ccccc2)COC(=O)[C@@H](Cc2ccc(F)cc2)C/C=C\C[C@H]1CC(=O)N(CCO)Cc1ccccc1` as the compound, how does the IC50 [15] read?
Answer: The IC50 was > 109 µM (inactive).

Question: And the IC50 [16]?
Answer: The IC50 was 37.8 µM (inactive).

Question: Which EC50 (Kallikrein-7) does the source give for `COC(=O)c1ccc(N2C(c3cc(OC)cc(OC)c3)=Cc3ccc(-c4cccnc4)cc3C2CC(=O)C2CC2)cc1` (stereo not given) here?
Answer: The EC50 was 38.9 µM (inactive).

Question: Which AC50 (Paired box protein Pax-8) does the source give for `C[C@@H]1CCCCO[C@H](CN(C)Cc2ccncc2)[C@H](C)CN([C@@H](C)CO)C(=O)c2cc(NC(=O)NC3CCCCC3)ccc2O1` here?
Answer: Its AC50 is 11.3 µM (active).

Question: What about the AC50 [17] of the same compound?
Answer: The AC50 was 36.7 µM (active).

Question: What about the AC50 [18] of the same compound?
Answer: Its AC50 is 36.1 µM (active).

Question: What about the AC50 [19] of the same compound?
Answer: Its AC50 is 18.7 µM (active).

Question: What about the AC50 [20] of the same compound?
Answer: Its AC50 is 25.5 µM (active).

Question: And the AC50 [21]?
Answer: The AC50 was 68.3 µM (active).

— ChEMBL document CHEMBL1201862, “PubChem BioAssay data set” (2004)
